Experimental data as given in article PMC7753086 (Computational and Structural Biotechnology Journal, 2020).
Values joined by “and” are separate entries in the source; they are usually repeats but may differ in a detail not shown here. Equal values may be shown once. “Also recorded” adds a separate entry of the source. Read-outs that look alike come from different tables or passages of the source.

Columns and labels:
mushroom tyrosinase [1] = molecular target: mushroom tyrosinase (Agaricus bisporus, UniProt C7FF04); assay: biochemical; assay type: biochemical; details: for Tyrosinase inhibition (%): 25 μM, L-tyrosine as substrate, NI: no inhibition, means ± SEMs, 25 µM; for inhibitory potency relative to kojic acid: from IC50 values
Chain of mushroom tyrosinase (Agaricus bisporus, UniProt C7FF04) (C7FF04 1-392): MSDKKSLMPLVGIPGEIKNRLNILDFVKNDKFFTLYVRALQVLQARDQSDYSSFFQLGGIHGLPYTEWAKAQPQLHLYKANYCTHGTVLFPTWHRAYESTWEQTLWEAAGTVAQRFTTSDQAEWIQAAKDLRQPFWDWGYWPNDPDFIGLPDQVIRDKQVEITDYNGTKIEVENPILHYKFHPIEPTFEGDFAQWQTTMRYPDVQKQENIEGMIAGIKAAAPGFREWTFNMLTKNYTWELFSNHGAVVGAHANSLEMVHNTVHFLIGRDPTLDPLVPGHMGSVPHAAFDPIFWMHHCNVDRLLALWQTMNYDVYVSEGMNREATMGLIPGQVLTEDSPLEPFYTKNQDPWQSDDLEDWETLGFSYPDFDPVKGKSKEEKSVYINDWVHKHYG

B16F10 melanoma cells [2] = assay: Melanin content assay in α-MSH and IBMX co-stimulated B16F10 cells; assay type: cell-based, murine; details: for melanin contents: 5, 10, 20 μM, α-MSH and IBMX, 48 h
B16F10 melanoma cells [3] = assay: Cell viability assay: EZ-cytox assay; assay type: cell-based, murine; details: up to 20 µM, 24 h
mushroom tyrosinase [4] = assay: Kinetic studies of tyrosinase inhibition; assay type: biochemical; details: for mode of tyrosinase inhibition: Lineweaver-Burk plots, L-tyrosine as substrate
[5] = system: cellular tyrosinase in B16F10 melanoma cells; assay type: cell-based, murine; details: for cellular tyrosinase activity: 5, 10, 20 μM, α-MSH 1 μM and IBMX 200 µM, 48 h
[6] = after 5 days at 20 °C; cited from earlier work

| SMILES | IC50 (mushroom tyrosinase [1]) [µM] | Tyrosinase inhibition (%) (mushroom tyrosinase [1]) | inhibitory potency relative to kojic acid (mushroom tyrosinase [1]) | Ki (mushroom tyrosinase [4]; inhibitor conc. 5.0 μM) [µM] | Vmax (mushroom tyrosinase [4]; inhibitor conc. 5.0 μM) [mM/min] | Ki (mushroom tyrosinase [4]; inhibitor conc. 10.0 μM) [µM] | Vmax (mushroom tyrosinase [4]; inhibitor conc. 10.0 μM) [mM/min] | Vmax (mushroom tyrosinase [4]; regardless of concentration) [mM/min] | melanin contents (B16F10 melanoma cells [2]) | cytotoxic effect (cell viability) (B16F10 melanoma cells [3]) | mode of tyrosinase inhibition (mushroom tyrosinase [4]) | cellular tyrosinase activity [5] | cellular tyrosinase inhibition compared with kojic acid at 20 μM ([5]; compound at 10 μM) | further results |
| --- | --- | --- | --- | --- | --- | --- | --- | --- | --- | --- | --- | --- | --- | --- |
| OC[C@H]1O[C@@H](Oc2ccc(O)cc2)[C@H](O)[C@@H](O)[C@@H]1O [Arbutin] | – | – | – | – | – | – | – | – | – | – | – | – | – | decomposition [6]: 10% |
| O=C1/C(=C/c2ccc(O)c(Br)c2)OC(=S)N1c1ccccc1 [Compound 1n, (Z)-5-(3-Bromo-4-hydroxybenzylidene)-3-phenyl-2-thioxooxazolidin-4-one] | – | 24.96 ± 4.72 | – | – | – | – | – | – | – | – | – | – | – | – |
| O=C1/C(=C/c2ccc(O)c(O)c2)OC(=S)N1c1ccccc1 [Compound 1b, (Z)-5-(3,4-Dihydroxybenzylidene)-3-phenyl-2-thioxooxazolidin-4-one] | 53.38 ± 0.39 | – | – | – | – | – | – | – | – | – | – | – | – | – |

The next lines start with results.

| IC50 (mushroom tyrosinase [1]) [µM] | Tyrosinase inhibition (%) (mushroom tyrosinase [1]) | inhibitory potency relative to kojic acid (mushroom tyrosinase [1]) | Ki (mushroom tyrosinase [4]; inhibitor conc. 5.0 μM) [µM] | Vmax (mushroom tyrosinase [4]; inhibitor conc. 5.0 μM) [mM/min] | Ki (mushroom tyrosinase [4]; inhibitor conc. 10.0 μM) [µM] | Vmax (mushroom tyrosinase [4]; inhibitor conc. 10.0 μM) [mM/min] | Vmax (mushroom tyrosinase [4]; regardless of concentration) [mM/min] | SMILES | melanin contents (B16F10 melanoma cells [2]) | cytotoxic effect (cell viability) (B16F10 melanoma cells [3]) | mode of tyrosinase inhibition (mushroom tyrosinase [4]) | cellular tyrosinase activity [5] | cellular tyrosinase inhibition compared with kojic acid at 20 μM ([5]; compound at 10 μM) | further results |
| --- | --- | --- | --- | --- | --- | --- | --- | --- | --- | --- | --- | --- | --- | --- |
| 11.2 ± 0.54 | 71.12 ± 0.71 | 2 fold and 2.1 fold | 5.85 | 0.027 | 4.51 | 0.027 | 0.027 | O=C1/C(=C/c2ccccc2O)OC(=S)N1c1ccccc1 [Compound 1j, (Z)-5-(2-Hydroxybenzylidene)-3-phenyl-2-thioxooxazolidin-4-one] | significantly and potently decreased melanin contents | did not have a significant cytotoxic effect | competitively inhibited; also recorded: competitive inhibitors | significantly and concentration-dependently decreased cellular tyrosinase activity | more potent than kojic acid | inhibition of melanin production compared with kojic acid at 20 µM (B16F10 melanoma cells [2]; compound at 5 μM): inhibited melanin production more than kojic acid; Ki (mushroom tyrosinase [4]; inhibitor conc. 20.0 μM): 3.22 µM; Vmax (mushroom tyrosinase [4]; inhibitor conc. 20.0 μM): 0.027 mM/min; cellular tyrosinase inhibition compared with kojic acid at 20 μM ([5]; compound at 5 μM): inhibited cellular tyrosinase more than kojic acid |
| 4.7 ± 0.4 | 78.05 ± 4.03 | 5 fold and 4.9 fold | 2.51 | 0.04 | 2.19 | 0.04 | 0.04 | O=C1/C(=C/c2ccc(O)cc2O)OC(=S)N1c1ccccc1 [Compound 1c, (Z)-5-(2,4-Dihydroxybenzylidene)-3-phenyl-2-thioxooxazolidin-4-one] | significantly and potently decreased melanin contents | did not have a significant cytotoxic effect | competitively inhibited; also recorded: competitive inhibitors | significantly and concentration-dependently decreased cellular tyrosinase activity | more potent than kojic acid; also recorded: inhibited cellular tyrosinase more than kojic acid | inhibition of melanin production compared with kojic acid at 20 µM (B16F10 melanoma cells [2]; compound at 10 μM): inhibited melanin production more than kojic acid; Ki (mushroom tyrosinase [4]; inhibitor conc. 2.5 μM): 3.02 µM; Vmax (mushroom tyrosinase [4]; inhibitor conc. 2.5 μM): 0.04 mM/min |
